We go through 26 compounds from PubChem BioAssay AID330 (DTP/NCI, 2004).

Where “and” joins values, the source holds several entries; their conditions need not be identical. Equal entries are not always repeated. Toxic doses and inconclusive results are not listed.

The assay concerns P388 leukemia ip, CD2F1 mice, survival T/C. The experiment in a line: NCI In Vivo Anticancer Drug Screen. Data for tumor model P388 Leukemia (intraperitoneal) in CD2F1 (CDF1) mice. The conditions noted are these: endpoint: median survival time, higher = longer survival. In outline:
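Mice carrying the transplanted tumor received test compound or vehicle. Survival was recorded in each group, and the value is the treated-group measurement divided by that of the vehicle-treated control group.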

Setting [1] is: dose: 100.0 mg/kg/injection, schedule: Q01DX009 (ip), vehicle: saline with Tween-80.
Where [2] appears, read: dose: 200.0 mg/kg/injection, schedule: Q01DX009 (ip), vehicle: saline with Tween-80.
[3] abbreviates: dose: 50.0 mg/kg/injection, schedule: Q01DX005 (ip), vehicle: Klucel (hydroxypropylcellulose) (HPC).
The mark [4] stands for this setting: dose: 100.0 mg/kg/injection, schedule: Q01DX005 (ip), vehicle: Klucel (hydroxypropylcellulose) (HPC).
Where [5] appears, read: dose: 200.0 mg/kg/injection, schedule: Q01DX005 (ip), vehicle: Klucel (hydroxypropylcellulose) (HPC).
The mark [6] stands for this setting: dose: 50.0 mg/kg/injection, schedule: Q01DX009 (ip), vehicle: saline.
The mark [7] stands for this setting: dose: 100.0 mg/kg/injection, schedule: Q01DX009 (ip), vehicle: saline.
[8] abbreviates: dose: 200.0 mg/kg/injection, schedule: Q01DX009 (ip), vehicle: saline.
Setting [9] is: dose: 60.0 mg/kg/injection, schedule: Q01DX005 (ip), vehicle: Klucel (hydroxypropylcellulose) (HPC).
The mark [10] stands for this setting: dose: 120.0 mg/kg/injection, schedule: Q01DX005 (ip), vehicle: Klucel (hydroxypropylcellulose) (HPC).
The mark [11] stands for this setting: dose: 60.0 mg/kg/injection, schedule: Q01DX005 (ip), vehicle: saline with Tween-80.
Where [12] appears, read: dose: 120.0 mg/kg/injection, schedule: Q01DX005 (ip), vehicle: saline with Tween-80.
[13] abbreviates: dose: 240.0 mg/kg/injection, schedule: Q01DX005 (ip), vehicle: saline with Tween-80.
The mark [14] stands for this setting: dose: 50.0 mg/kg/injection, schedule: Q01DX009 (ip), vehicle: Klucel (hydroxypropylcellulose) (HPC).
The mark [15] stands for this setting: dose: 100.0 mg/kg/injection, schedule: Q01DX009 (ip), vehicle: Klucel (hydroxypropylcellulose) (HPC).
Where [16] appears, read: dose: 200.0 mg/kg/injection, schedule: Q01DX009 (ip), vehicle: Klucel (hydroxypropylcellulose) (HPC).
Setting [17] is: dose: 240.0 mg/kg/injection, schedule: Q01DX005 (ip), vehicle: Klucel (hydroxypropylcellulose) (HPC).

Consider `CN(CCCN(C)N=Nc1ccccc1C(=O)O)N=Nc1ccccc1C(=O)O`, for which the T/C is, setting by setting: under setting [1], 86 % of control; under setting [2], 90 % of control.

For `Cc1nc2c(cnn2C)c(=O)n1C(C)C`, the T/C is 104 % of control under setting [3], 112 % of control under setting [4] and 111 % of control under setting [5].

For the compound `CCCCCCOc1cccc(OCCCC[N+]2(CC)CCCCC2)c1`, the T/C (dose: 1.56 mg/kg/injection, schedule: Q01DX009 (ip), vehicle: saline) is 96 % of control; the T/C (dose: 3.12 mg/kg/injection, schedule: Q01DX009 (ip), vehicle: saline) is 105 % of control; the T/C (dose: 6.25 mg/kg/injection, schedule: Q01DX009 (ip), vehicle: saline) is 91 % of control.

With `C=C1C(=O)OC2C1CC(O)/C(C)=C\CCC1(C)OC21` (stereo unspecified), the T/C was 117 % of control (dose: 50.0 mg/kg/injection, schedule: Q01DX009 (ip), vehicle: distilled water + Tween-80 + alcohol); 117 % of control (dose: 70.0 mg/kg/injection, schedule: Q01DX009 (ip), vehicle: distilled water + Tween-80 + alcohol); 122 % of control (dose: 70.0 mg/kg/injection, schedule: Q01DX009 (ip), vehicle: water); 104 % of control (dose: 90.0 mg/kg/injection, schedule: Q01DX009 (ip), vehicle: distilled water + Tween-80 + alcohol).

For `CC1(C)OP(=O)(O)C=C1Br`, the T/C was 103 % of control under setting [6], 107 % of control under setting [7] and 93 % of control under setting [8].

As for `CN1CCN(c2ccncc2S(=O)(=O)N2CCOCC2)CC1`, the T/C reads like this: under setting [6], 97 % of control; under setting [7], 95 % of control.

Consider `CN(C)c1ccc(-c2nnc3c(c(=O)n(C)c(=O)n3C)[n+]2[O-])cc1`, for which the T/C is, setting by setting: (dose: 25.0 mg/kg/injection, schedule: Q01DX001 (ip), vehicle: Klucel (hydroxypropylcellulose) (HPC)) 102 % of control; (dose: 50.0 mg/kg/injection, schedule: Q01DX001 (ip), vehicle: Klucel (hydroxypropylcellulose) (HPC)) 93 % of control; (dose: 100.0 mg/kg/injection, schedule: Q01DX001 (ip), vehicle: Klucel (hydroxypropylcellulose) (HPC)) 100 % of control and 94 % of control.

Regarding `COc1ccc(C2CC(C)(O)Oc3cc4c(cc32)OCO4)cc1` (stereo unspecified), the T/C was 97 % of control under setting [9] and 89 % of control under setting [10].

For `COc1ccc2[nH]c3c(C)c4cc[n+](CCCCCCCC[n+]5ccc6c(C)c7[nH]c8ccc(OC)cc8c7c(C)c6c5)cc4c(C)c3c2c1`, the T/C (dose: 0.78 mg/kg/injection, schedule: Q04DX003 (ip), vehicle: other) is 117 % of control; the T/C (dose: 25.0 mg/kg/injection, schedule: Q04DX003 (ip), vehicle: other) was 122 % of control; the T/C (dose: 50.0 mg/kg/injection, schedule: Q04DX003 (ip), vehicle: other) was 119 % of control.

Regarding `CC1c2ccccc2-c2ccccc2N1C(=O)c1cccc(C(=O)N2c3ccccc3-c3ccccc3C2C)n1` (stereo unspecified), the T/C under setting [11] was 93 % of control, the T/C under setting [12] was 98 % of control and the T/C under setting [13] is 90 % of control.

As to `O=C(O)C(Cc1ccccc1[N+](=O)[O-])N1C(=O)c2ccccc2C1=O` (stereo unspecified), the T/C is, setting by setting: (dose: 50.0 mg/kg/injection, schedule: Q01DX009 (ip), vehicle: saline with Tween-80) 112 % of control; under setting [1], 92 % of control; under setting [2], 94 % of control; (dose: 400.0 mg/kg/injection, schedule: Q01DX009 (ip), vehicle: saline with Tween-80) 100 % of control.

For `CSc1nc(C(N)=O)c(N)c(=O)[nH]1`, the T/C is 109 % of control under setting [14], 110 % of control under setting [15] and 117 % of control under setting [16].

Turning to `O=Cc1cccc(O)c1O`, the T/C is 103 % of control and 110 % of control under setting [7]; 115 % of control under setting [8].

As for `C1CN(CCSSCCN2CCOCC2)CCO1`, the T/C reads like this: under setting [6], 104 % of control; under setting [7], 113 % of control; under setting [8], 109 % of control.

On to `COc1cccc([N+]([O-])=NC#N)c1`, for which the T/C reads like this: (dose: 12.5 mg/kg/injection, schedule: Q04DX003 (ip), vehicle: Klucel (hydroxypropylcellulose) (HPC)) 105 % of control; (dose: 25.0 mg/kg/injection, schedule: Q04DX003 (ip), vehicle: Klucel (hydroxypropylcellulose) (HPC)) 115 % of control; (dose: 50.0 mg/kg/injection, schedule: Q04DX003 (ip), vehicle: Klucel (hydroxypropylcellulose) (HPC)) 107 % of control and 90 % of control.

As for `CC(SCCCCCCCCCCSC(C)C(=O)O)C(=O)O` (stereo unspecified), the T/C is, setting by setting: under setting [3], 93 % of control; under setting [4], 98 % of control; under setting [5], 95 % of control.

In the case of `CCCOC1(C)CC(c2cc(OC)c(OC)c(OC)c2)c2cc3c(cc2O1)OCO3` (stereo unspecified), the T/C by setting is: under setting [9], 93 % of control; under setting [10], 91 % of control; under setting [17], 91 % of control.

With `NN1C(=O)CC(c2cccc(Cl)c2)C1=O` (stereo unspecified), the T/C reads like this: under setting [11], 92 % of control; under setting [12], 92 % of control; under setting [13], 92 % of control.

Regarding `CCOC(=O)Nc1nc2c(SC#N)cc(C)cc2s1`, the T/C is 103 % of control (dose: 12.5 mg/kg/injection, schedule: Q01DX009 (ip), vehicle: Klucel (hydroxypropylcellulose) (HPC)); 96 % of control (dose: 25.0 mg/kg/injection, schedule: Q01DX009 (ip), vehicle: Klucel (hydroxypropylcellulose) (HPC)); 88 % of control and 96 % of control under setting [14].

On to `CC(C)(NC(=O)OCc1ccccc1)C(=O)n1cc(CC(C(=O)OCc2ccccc2)n2cnc3ccccc3c2=O)c2ccccc21` (stereo unspecified), for which the T/C (dose: 8.75 mg/kg/injection, schedule: Q01DX005 (ip), vehicle: Klucel (hydroxypropylcellulose) (HPC)) was 96 % of control; the T/C (dose: 17.5 mg/kg/injection, schedule: Q01DX005 (ip), vehicle: Klucel (hydroxypropylcellulose) (HPC)) is 100 % of control; the T/C (dose: 35.0 mg/kg/injection, schedule: Q01DX005 (ip), vehicle: Klucel (hydroxypropylcellulose) (HPC)) is 99 % of control.

On to `COC1C(N)C(OC2C(Oc3cccc4c(O)c5c(=O)oc6ccc(C)c7c(=O)oc(c34)c5c67)OC(C)C(O)C2(C)O)OC(C)C1O` (stereo unspecified), for which the T/C (dose: 0.63 mg/kg/injection, schedule: Q01DX009 (ip), vehicle: other) is 183 % of control; the T/C (dose: 1.25 mg/kg/injection, schedule: Q01DX009 (ip), vehicle: other) was 198 % of control; the T/C (dose: 2.5 mg/kg/injection, schedule: Q01DX009 (ip), vehicle: other) was 202 % of control; the T/C (dose: 5.0 mg/kg/injection, schedule: Q01DX009 (ip), vehicle: other) is 276 % of control.

On to `CNCCc1c(C2[C@@H]3[C@H](C=C(C)CC3(C)C)[C@]34Nc5ccccc5[C@]23CCN4C)[nH]c2ccccc12` (stereo partly specified), for which the T/C was 100 % of control (dose: 4.0 mg/kg/injection, schedule: Q01DX009 (ip), vehicle: saline); 94 % of control (dose: 8.0 mg/kg/injection, schedule: Q01DX009 (ip), vehicle: saline); 103 % of control (dose: 16.0 mg/kg/injection, schedule: Q01DX009 (ip), vehicle: saline); 100 % of control (dose: 32.0 mg/kg/injection, schedule: Q01DX009 (ip), vehicle: saline).

On to `CCC/C(=N/NC(N)=O)C(OC)OC`, for which the T/C (dose: 37.5 mg/kg/injection, schedule: Q01DX009 (ip), vehicle: saline) is 92 % of control and the T/C (dose: 75.0 mg/kg/injection, schedule: Q01DX009 (ip), vehicle: saline) was 90 % of control.

Take `O=C(Nc1ccc(Cl)cc1)Nc1nnc2ncc3c(n12)CCCCCCCCCC3`: the T/C was 102 % of control under setting [11] and 87 % of control under setting [12].

On to `CC(O)CCC(=O)c1nc2ccccc2s1` (stereo unspecified), for which the T/C is, setting by setting: under setting [9], 95 % of control; under setting [10], 100 % of control; under setting [17], 98 % of control.

Take `C/C(=N/N(C)C)c1ccncc1`: the T/C under setting [14] was 104 % of control, the T/C under setting [15] was 107 % of control and the T/C under setting [16] is 113 % of control.
